In PubChem BioAssay (NCI):
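Values below derive from 48-hour exposures of cells grown in 96-well plates, with endpoints linearly interpolated between the two concentrations bracketing the appropriate inhibition level. GI50 is the concentration that inhibits growth by half. TGI: concentration producing complete growth inhibition.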

Columns and labels:
Assay in all cases: NCI anticancer screen, dose series, 48 h
[1] = tested on: SNB-75 CNS
[2] = tested on: SN12C renal
[3] = tested on: KM12 colon
[4] = tested on: HT29 colon
[5] = tested on: ACHN renal
[6] = tested on: PC-3 prostate
[7] = tested on: MDA-N
[8] = tested on: K-562 leukemia
[9] = tested on: HCT-15 colon
[10] = tested on: T-47D breast

Cn1c(SCc2ccc([N+](=O)[O-])cc2)nnc1C12CC3CC(CC(C3)C1)C2
TGI [1]: > 10 µM | TGI [2]: > 10 µM | TGI [3]: > 10 µM | TGI [4]: > 10 µM | TGI [5]: > 10 µM | TGI [6]: > 10 µM | TGI [7]: > 10 µM | TGI [8]: > 10 µM | TGI [9]: > 10 µM | TGI [10]: > 10 µM

C[C@]12CC[C@@H]3c4cc(C=O)c(OCc5ccccc5)cc4CC[C@H]3[C@@H]1CCC2OCc1ccccc1 (stereo not given in full)
TGI [1]: > 100 µM | TGI [2]: > 100 µM | TGI [3]: > 100 µM | TGI [4]: > 100 µM | TGI [5]: > 100 µM | TGI [6]: > 100 µM | TGI [7]: > 100 µM | TGI [8]: > 100 µM | TGI [9]: > 100 µM | TGI [10]: > 100 µM

COc1ccc(CNCCN2C(=O)c3ccc4c5c(ccc(c35)C2=O)C(=O)N(CCNCc2ccc(OC)c(OC)c2OC)C4=O)c(OC)c1OC
GI50 [1]: 0.903 µM | TGI [1]: 2.09 µM | GI50 [2]: 0.0942 µM | TGI [2]: 0.207 µM | GI50 [4]: 0.164 µM | TGI [4]: 0.589 µM

N#Cc1cc([N+](=O)[O-])ccc1NC(=O)C(=O)Nn1c(=S)[nH]c2ccccc2c1=O
TGI [1]: > 100 µM | TGI [2]: > 100 µM | TGI [3]: > 100 µM | TGI [4]: > 100 µM | TGI [8]: > 100 µM | TGI [9]: > 100 µM

Cc1ccc2c(=O)cc(-c3ccccc3)[nH]c2n1
TGI [1]: > 100 µM | TGI [2]: > 36 µM | TGI [3]: 45.7 µM | TGI [4]: 0.194 µM | TGI [5]: > 100 µM | TGI [6]: 26.7 µM | TGI [7]: 0.0999 µM | TGI [8]: 6.57 µM | TGI [9]: 6.3 µM | TGI [10]: > 100 µM

CCN1CCC(O)(/C=C/c2ccc(Cl)c(Cl)c2)C(C(=O)/C=C/c2ccc(Cl)c(Cl)c2)C1 (stereo not given)
TGI [1]: 2.37 µM | TGI [2]: 2.06 µM | TGI [3]: 1.88 µM | TGI [4]: 1.82 µM | TGI [5]: 2.43 µM | TGI [6]: 1.05 µM | TGI [7]: 2.89 µM | TGI [8]: 8.51 µM | TGI [9]: 4.52 µM | TGI [10]: 2.36 µM

COc1cccc2c1CCc1sc(CN3CCN(C)CC3)nc1-2
TGI [1]: > 100 µM | TGI [2]: > 100 µM | TGI [3]: > 100 µM | TGI [4]: 54.1 µM | TGI [5]: > 100 µM | TGI [6]: > 100 µM | TGI [7]: > 100 µM | TGI [8]: > 100 µM | TGI [9]: > 100 µM | TGI [10]: > 100 µM

CC(C)C(C=O)C(O)(C(F)(F)F)C(F)(F)F (stereo not given)
TGI [1]: > 100 µM | TGI [3]: > 100 µM | TGI [4]: > 100 µM | TGI [5]: > 100 µM | TGI [6]: > 100 µM | TGI [7]: > 100 µM | TGI [8]: > 100 µM | TGI [9]: > 100 µM | TGI [10]: > 100 µM

CN(CCCNC(=O)c1[nH]nc2c1ccc1ccccc12)CCCNC(=O)c1[nH]nc2c1ccc1ccccc12
TGI [1]: 31.3 µM | TGI [2]: 30.1 µM | TGI [3]: 39.7 µM | TGI [4]: 34.6 µM | TGI [5]: 31.4 µM | TGI [6]: 27.9 µM | TGI [7]: 4.52 µM | TGI [9]: 31.2 µM | TGI [10]: 36.1 µM

Cn1cnc([N+](=O)[O-])c1Sc1nnc(-c2ccc(Cl)cc2)n1C
TGI [1]: 46.7 µM | TGI [2]: 28.4 µM | TGI [3]: 49.9 µM | TGI [4]: 32 µM | TGI [5]: 29.3 µM | TGI [8]: 34.2 µM

O=C1C(Nc2ccc(S(=O)(=O)Nc3cnc4ccccc4n3)cc2)=CC(=Nc2ccc(S(=O)(=O)Nc3cnc4ccccc4n3)cc2)c2ccccc21
TGI [1]: 28.5 µM | TGI [2]: 30.6 µM | TGI [3]: 31 µM | TGI [4]: 36.3 µM | TGI [5]: > 54.9 µM | TGI [6]: 52.9 µM | TGI [7]: 34.8 µM | TGI [8]: > 74.9 µM | TGI [9]: 33 µM

CCOC(=O)C1=C(C)NC(c2ccccc2)=C(C(=O)OCc2ccccc2)C1C#Cc1ccccc1 (stereo not given)
TGI [1]: > 100 µM | TGI [2]: > 100 µM | TGI [3]: > 100 µM | TGI [6]: > 100 µM | TGI [7]: > 100 µM | TGI [8]: > 100 µM | TGI [9]: > 100 µM | TGI [10]: > 100 µM

O=C(N/N=C/c1ccc(O)cc1)NNCCO
TGI [1]: > 100 µM | TGI [2]: > 100 µM | TGI [3]: > 100 µM | TGI [4]: > 100 µM | TGI [6]: > 100 µM | TGI [7]: > 100 µM | TGI [8]: > 100 µM | TGI [9]: > 100 µM | TGI [10]: > 100 µM

CCCN1CCN(c2ccc3nc(-c4ccc5nc(-c6ccc(OCC)cc6)[nH]c5c4)[nH]c3c2)CC1
GI50 [1]: 0.567 µM | TGI [1]: 29.6 µM | GI50 [2]: > 100 µM | TGI [2]: > 100 µM | GI50 [5]: 1.15 µM | TGI [5]: 2.4 µM | GI50 [8]: 0.418 µM | TGI [8]: 1.82 µM | GI50 [10]: 1.41 µM | TGI [10]: 6.36 µM

Cc1nc2cc3[nH]c4ccccc4c(=O)c3cc2s1
TGI [1]: > 100 µM | TGI [2]: > 100 µM | TGI [3]: > 100 µM | TGI [4]: > 100 µM | TGI [5]: > 100 µM | TGI [8]: > 100 µM | TGI [9]: > 100 µM

C#CCN1C(=O)CN2C(Cl)(Cl)C2(c2ccccc2)c2cc(Cl)ccc21 (stereo not given)
TGI [2]: > 100 µM | TGI [3]: 94 µM | TGI [4]: > 100 µM | TGI [5]: > 100 µM | TGI [8]: > 100 µM | TGI [9]: > 100 µM

CCN(CC)CCNC(=O)C1COc2ccc(-c3cc(=O)c4ccccc4o3)cc2O1 (stereo not given)
TGI [1]: 42.7 µM | TGI [2]: 55.1 µM | TGI [3]: 35.4 µM | TGI [4]: 34.6 µM | TGI [8]: 49 µM | TGI [9]: 31.8 µM

C=C1C(O)C2OC(=O)C(=C)C2C(OC(=O)/C(C)=C/C)CC2(C)OC2C2OC12 (stereo not given)
TGI [1]: > 100 µM | TGI [2]: 14.8 µM | TGI [3]: 11.6 µM | TGI [4]: 33.7 µM | TGI [5]: 15.5 µM | TGI [6]: 54.4 µM | TGI [7]: 6.02 µM | TGI [9]: 14.5 µM | TGI [10]: > 100 µM

O=C(/C=C/c1cc2ccccc2[nH]c1=O)c1ccc(O)cc1
GI50 [1]: 9.3 µM | TGI [1]: 23 µM | GI50 [2]: 3.48 µM | TGI [2]: 16 µM | GI50 [3]: 1.89 µM | TGI [3]: 4.5 µM | GI50 [4]: 3.61 µM | TGI [4]: 12.1 µM | GI50 [5]: 2.67 µM | TGI [5]: 8.86 µM | GI50 [6]: 5.39 µM | TGI [6]: 55.3 µM | GI50 [8]: 3.89 µM | TGI [8]: > 100 µM | GI50 [9]: 2.71 µM | TGI [9]: 12.8 µM | GI50 [10]: 4.19 µM | TGI [10]: 20.4 µM

O=C1C2Cc3ccccc3CN2C(=O)N1CN1CCCCC1 (stereo not given)
TGI [2]: > 100 µM | TGI [3]: > 100 µM | TGI [5]: > 100 µM | TGI [8]: > 100 µM | TGI [9]: > 100 µM

c1ccc(C2SCc3nc4ccccc4n32)cc1 (stereo not given)
TGI [1]: 69.8 µM | TGI [2]: > 100 µM | TGI [3]: > 100 µM | TGI [4]: > 100 µM | TGI [5]: > 100 µM | TGI [8]: > 100 µM | TGI [9]: > 100 µM

COC(=O)C12CCC(CC1=O)C2(C)C (stereo not given)
TGI [1]: > 100 µM | TGI [2]: > 100 µM | TGI [4]: > 100 µM | TGI [5]: > 100 µM | TGI [8]: > 100 µM | TGI [9]: > 100 µM

N#Cc1ccccc1C#C/C=C\C#Cc1ccccn1
TGI [1]: 67.6 µM | TGI [2]: 47.8 µM | TGI [3]: 29.6 µM | TGI [4]: 41.6 µM | TGI [5]: > 100 µM | TGI [6]: 40.6 µM | TGI [8]: > 100 µM | TGI [9]: 70 µM | TGI [10]: 62.5 µM
